The subject of data set [1] is CNE. The experiment in a line: Cell viability determination (MTT), CNE. To be noted: Homo sapiens, nasopharyngeal cancer, 48 hour incubation, read-out: Drug concentrations for 50% cell viability (IC50). The data set is classed as cell-based. The source says:
(§1) Cell Culture: A549, DLD1, SW480, LOVO, HT-29, Hela, U-20S, MES-SA, SK-MEL-28, Panc-1, DU-145, CNE, U251, Eca-109, MGC80-3, QGY-7701, BEL-7404, PLC/PRF/5, Huh-7, and SGC-7901 cells were maintained in Dulbecco's Modified Eagle Medium (DMEM) (imported from Invitrogen, Carlsbad, Calif., USA) supplemented with 10% fetal bovine serum (FBS) (Si Ji Qing, Hangzhou, China) and 1% penicillin/streptomycin/amphotericin B (imported from Invitrogen, Carlsbad, Calif., USA).
(§2) Cell Viability Determination: Popular MTT method (Archives of Biochemistry and Biophysics, 1993, 303: 474-482) was used to screen the in vitro effects of the invented drugs. Briefly, 5000 to 10000 cells were inoculated per well in a 96-well plate. After overnight incubation, drug was added to the wells at final concentration of 10 μM, […], 2.5 μM, 1.25 μM, or 1 μM, 0.75 μM, 0.5 μM and 0.25 μM in complete culture medium. Each dose level covered 4 equivalent wells. After 48 hour incubation, one tenth volume of 5 mg/mL MTT (thiazolyl blue tetrazolium bromide, Sigma-Aldrich) stock solution was added, and incubation was continued for 2 hours. Then medium was removed and 100 μL of isopropanol solution comprising 86% isopropanol, 4% aqueous 1 N HCl and 10% aqueous SDS solution (10% in concentration) was added. The absorbance of each well at 570 nm wavelength was measured by a micro-plate reader after gentle shaking for 20 minutes. Drug concentrations of 50% cell viability (IC50) were calculated by LOGIT method.

Data set [2] relates to Eca-109. Nature of the data set: Cell viability determination (MTT), Eca-109. The settings on record: Homo sapiens, Eca-109, esophageal cancer, 48 hour incubation, read-out: Drug concentrations for 50% cell viability (IC50). Format: cell-based.
Text: as §1, §2

The subject of data set [3] is SK-MEL-28. The experiment in a line: Cell viability determination (MTT), SK-MEL-28. Format: cell-based. The settings on record: Homo sapiens, SK-MEL-28, malignant melanoma, 48 hour incubation, read-out: Drug concentrations for 50% cell viability (IC50).
Text: as §1, §2

Data set [4] has as its system DU-145. Nature of the data set: Cell viability determination (MTT), DU-145. The data set is classed as cell-based. To be noted: Homo sapiens, DU-145, prostate cancer, 48 hour incubation, read-out: Drug concentrations for 50% cell viability (IC50).
Text: as §1, §2

Data set [5] can be described thus: Metabolism in biological fluid (human whole blood, cancer cell lysate, liver microsomes, mouse oral uptake), HPLC. The data set is classed as in vitro ADME. The settings on record: liver microsomes or mouse oral uptake system, 20 μM, 37° C. The protocol:
Second, a major metabolite found after incubation of compound I, III, IV, VI or XIII in biological fluid, such as human whole blood, or cancer cell lysate, or liver microsomes, or mouse oral uptake system, is compound XII (FIG. 3). Similarly, a major metabolite found after incubation of compound V, VII or XIV in biological fluid is 2-(1-hydroxy-n-propyl)-naphtho[2,3-b]furan-4,9-dione (data not shown). Reduction of the position 2 substituent carbonyl group is part of quinone redox reaction as evidenced by the β-lapachone effect on the formation of compound XII in the compound XIII incubation mixture of human whole blood (part D of FIG. 3). The possible reaction mechanism is proposed as shown in scheme 7, in which the two electron reduction could be NQ01 catalyzed reduction or two successive cytochrome b5 reductase or p450 reductase catalyzed reaction. As substrate of these enzymes, β-lapachone could compete for the two electron or single electron reaction and thus reduced formation of the metabolism product.
Crystalline or amorphous solid of compound was mixed with excipient and suspended in 0.5% carboxymethylcellulose (CMC) solution in a mortar. Then the mixture was orally administered into ICR mouse at the predetermined dosage. At the predetermined time point, blood was drawn from the mouse and stored in the vial containing heparin. The blood samples were centrifuged at 6,000 rpm for 10 min, and plasmas were separated. To each plasma sample, 9 times volume of acetonitrile/methyl trifluoromethanesulfonate (1000:1) or acetonitrile/concentrated HCl (1000:1) was added. The resulting mixtures were vortexed and incubated in dry ice for 30 minutes or in −20° C. freezer for 3 hours, then centrifuged, and supernatants were separated for HPLC analysis using gradient B.
The biological systems for in vitro metabolism study include: human whole blood stabilized with sodium citrate; cancer cell lysate (obtained using freeze-thaw method, 10 mg/ml in protein concentration for use); liver microsomes with NADPH generation system (prepared according to the protocol provided by iPhase Pharma, Beijing, China);
10 mM of a compound of formula I or its analog or compound XIII in DMSO (however, compound VI was in DMF) was added into the biological system to a final concentration of 20 μM. The mixtures were incubated at 37° C. for predetermined time. To each sample, then 9 times volume of acetonitrile was added. The resulting mixtures were vortexed and incubated in dry ice for 30 minutes or in −20° C. freezer for 3 hours, then centrifuged, and supernatants were separated for HPLC analysis using gradient B.
For orientation: Microsomes from liver hold many membrane-bound enzymes, among them those of drug oxidation.

Data set [6] relates to QGY-7701. Nature of the data set: Cell viability determination (MTT), QGY-7701. Format: cell-based. The settings on record: QGY7701, QGY-7701, liver cancer, 48 hour incubation, read-out: Drug concentrations for 50% cell viability (IC50).
Text: as §1, §2

In data set [7] the test system is MGC80-3. The experiment in a line: Cell viability determination (MTT), MGC80-3. To be noted: Homo sapiens, MGC-803, MGC80-3, stomach cancer, 48 hour incubation, read-out: Drug concentrations for 50% cell viability (IC50). Format: cell-based.
Text: as §1, §2

Data set [8] deals with MES-SA. The experiment in a line: Cell viability determination (MTT), MES-SA. Format: cell-based. The settings on record: Homo sapiens, leiomyosarcoma, 48 hour incubation, read-out: Drug concentrations for 50% cell viability (IC50).
Text: as §1, §2

Data set [9] concerns A549. Nature of the data set: Cell viability determination (MTT), A549. The data set is classed as cell-based. The settings on record: Homo sapiens, A549, lung cancer, 48 hour incubation, read-out: Drug concentrations for 50% cell viability (IC50).
Text: as §1, §2

Data set [10] relates to U251. Nature of the data set: Cell viability determination (MTT), U251. The data set is classed as cell-based. The settings on record: Homo sapiens, U-251, U251, glioma, 48 hour incubation, read-out: Drug concentrations for 50% cell viability (IC50).
Text: as §1, §2

Regarding `CC(=O)Oc1c2ccccc2c(OC(=O)CNC(=O)OC(C)(C)C)c2oc(C(C)=O)cc12` [compound IV, 2-acetyl-4-acetoxy-9-[(tert-butoxycarbonyl)amino]acetoxy-naphtho[2,3-b]furan], the IC50 in data set [1] was 1.33 µM; in data set [2] it was 1.63 µM; in [3], 0.25 to 0.5 µM; in [4], 0.25 to 0.5 µM; in data set [6], 3.26 µM; in data set [7] it was 1.22 µM. Moreover, the IC50 in data set [8] came out at 0.42 µM; in [9], 0.6 µM; in data set [10] it was 1.14 µM. In data set [5], the “Major metabolite found after incubation in biological fluid” value is given as “compound XII”.

The record behind these values is patent US9150530B2, “Esters of 4, 9-dihydroxy-naphtho [2, 3-b] furans for disease therapies” (Zhoushan Haizhongzhou Xinsheng Pharmaceuticals Co., Ltd., priority 2011, dated 2015).
